In US8314129B2, “Optical isomers of an iloperidone metabolite” (Novartis AG, priority 2004, dated 2012):

What was measured:
[1] = higher than parent drug iloperidone; cited from earlier work
[2] = target: 5HT6 receptors (Homo sapiens, UniProt P50406); test: radioligand binding, 5HT6 receptor; details: standard radioligand binding; human recombinant receptors and native rat brain receptors; read-out: affinity for 5HT6 receptors (pKi) (converted)
Protocol: (§1) Receptor affinity is determined with standard radioligand binding techniques, using human recombinant receptors and native rat brain receptors. Blockade of dopamine D2 and noradrenergic α2c receptors is tested in cell-lines using luciferase reporter gene assays based on 2nd messenger responses.

[3] = target: 5HT2A receptors (Homo sapiens, UniProt P28223); test: radioligand binding, 5HT2A receptor; details: standard radioligand binding; human recombinant receptors and native rat brain receptors; read-out: affinity for 5HT2A receptors (pKi) (converted)
5HT2A receptors, sequence (P28223 whole entry): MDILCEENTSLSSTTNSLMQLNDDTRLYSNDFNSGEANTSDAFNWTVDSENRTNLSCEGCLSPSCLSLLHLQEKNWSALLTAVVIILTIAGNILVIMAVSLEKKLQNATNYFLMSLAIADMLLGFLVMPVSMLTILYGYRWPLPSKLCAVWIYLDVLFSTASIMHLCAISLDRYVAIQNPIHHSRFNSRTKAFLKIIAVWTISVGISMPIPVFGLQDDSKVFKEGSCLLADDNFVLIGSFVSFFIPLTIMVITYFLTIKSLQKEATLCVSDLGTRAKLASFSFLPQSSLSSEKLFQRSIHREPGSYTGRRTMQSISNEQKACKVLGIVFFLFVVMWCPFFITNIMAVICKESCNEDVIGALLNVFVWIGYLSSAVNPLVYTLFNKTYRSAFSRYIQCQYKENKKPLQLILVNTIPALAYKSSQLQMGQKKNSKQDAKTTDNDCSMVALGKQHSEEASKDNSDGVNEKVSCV
Protocol: as §1

[4] = target: adrenergic α1 receptors; test: radioligand binding, adrenergic α1 receptor; details: standard radioligand binding; human recombinant receptors and native rat brain receptors
Protocol: as §1

[5] = target: T1, adrenergic α2c receptors (Homo sapiens, UniProt P18825); test: radioligand binding, adrenergic α2c receptor; details: standard radioligand binding; human recombinant receptors and native rat brain receptors; read-out: affinity for adrenergic α2c receptors (pKi) (converted)
T1 sequence (P18825 1-462): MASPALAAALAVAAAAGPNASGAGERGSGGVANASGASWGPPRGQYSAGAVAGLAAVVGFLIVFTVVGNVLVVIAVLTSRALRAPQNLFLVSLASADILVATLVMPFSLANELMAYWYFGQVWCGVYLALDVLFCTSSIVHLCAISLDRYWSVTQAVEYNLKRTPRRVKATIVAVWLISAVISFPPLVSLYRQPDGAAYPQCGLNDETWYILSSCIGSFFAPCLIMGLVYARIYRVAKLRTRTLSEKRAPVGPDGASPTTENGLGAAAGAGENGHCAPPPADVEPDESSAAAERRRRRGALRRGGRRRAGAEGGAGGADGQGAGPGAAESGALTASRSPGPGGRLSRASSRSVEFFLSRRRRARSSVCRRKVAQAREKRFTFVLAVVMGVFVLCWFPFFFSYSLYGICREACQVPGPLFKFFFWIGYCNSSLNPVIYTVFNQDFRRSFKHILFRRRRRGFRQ
Protocol: as §1

[6] = metabolite formation in humans following administration of iloperidone; format: in vivo, human
Excerpt: P-88-8991 consists of a mixture of two enantiomers which have never been disclosed in the literature.

5HT6 receptors, sequence (P50406 whole entry): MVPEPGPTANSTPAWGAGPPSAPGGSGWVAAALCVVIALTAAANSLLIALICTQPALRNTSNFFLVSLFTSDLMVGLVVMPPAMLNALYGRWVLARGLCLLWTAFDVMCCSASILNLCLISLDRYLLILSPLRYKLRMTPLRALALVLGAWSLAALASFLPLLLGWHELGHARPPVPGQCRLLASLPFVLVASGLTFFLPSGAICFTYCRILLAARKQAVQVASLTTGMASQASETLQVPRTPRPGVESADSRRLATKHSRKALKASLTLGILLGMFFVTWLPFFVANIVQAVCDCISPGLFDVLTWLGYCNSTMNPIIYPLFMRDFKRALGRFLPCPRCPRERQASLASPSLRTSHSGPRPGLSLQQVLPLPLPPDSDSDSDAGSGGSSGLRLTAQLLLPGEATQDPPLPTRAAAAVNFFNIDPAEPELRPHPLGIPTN

Row | Ki [2] | Ki [3] | affinity for adrenergic α1 receptors (pKi) [4] | Ki [5] | SMILES | plasma levels in human relative to the parent drug [1] | stereospecific formation of P-88-8991 enantiomer [6]
1 | – | – | – | – | COc1cc(C(C)O)ccc1OCCCN1CCC(c2noc3cc(F)ccc23)CC1 (racemic) [P-88-8991] | about 1.5 fold | –
2 | 0.00794 µM | 0.00126 µM | 8.9 | 0.0158 µM | COc1cc([C@H](C)O)ccc1OCCCN1CCC(c2noc3cc(F)ccc23)CC1 [formula I, (S)-1-(4-{3-[4-(6-fluoro-benzo[d]isoxazol-3-yl)-piperidin-1-yl]-propoxy}-3-methoxy-phenyl)-ethanol] | – | –
3 | 0.0158 µM | 0.00126 µM | 9.2 | 0.02 µM | COc1cc([C@@H](C)O)ccc1OCCCN1CCC(c2noc3cc(F)ccc23)CC1 [formula II, (R)-1-(4-{3-[4-(6-fluoro-benzo[d]isoxazol-3-yl)-piperidin-1-yl]propoxy}-3-methoxy-phenyl}-ethanol] | – | –
4 | – | – | – | – | COc1cc(C(C)=O)ccc1OCCCN1CCC(c2noc3cc(F)ccc23)CC1 [iloperidone, 1-(4-{3-[4-(6-fluoro-benzo[d]isoxazol-3-yl)piperidin-1-yl]propoxy}-3-methoxy-phenyl)-ethanone] | – | humans produce only one enantiomer stereospecifically
